Reference: patent US7601868B2, “Amine derivative” (Takeda Pharmaceutical Company Limited, priority 2003, dated 2009)

Compound | melting point [°C]
O=C(NCCc1ccc(CN2CCCC2)cc1)N1CCC(c2ccc(Cl)cc2)CC1 [Example 1, 4-(4-chlorophenyl)-N-{2-[4-(1-pyrrolidinylmethyl)phenyl]ethyl}-1-piperidinecarboxamide] | 116 to 117
CCCCCc1ccc(C(=O)NCCc2ccc(CN3CCCC3)cc2)cc1 [Example 3, 4-pentyl-N-{2-[4-(1-pyrrolidinylmethyl)phenyl]ethyl}benzamide] | 91 to 93
CCCC(=O)Cc1ccc(C(=O)NCCc2ccc(CN3CCCC3)cc2)cc1 [Example 4, 4-(2-oxopentyl)-N-{2-[4-(1-pyrrolidinylmethyl)phenyl]ethyl}benzamide] | 115 to 117
CC(CNC(=O)c1ccc(Br)cc1F)c1ccc(CN2CCCC2)cc1 (stereo not shown) [Example 5, 4-bromo-2-fluoro-N-{2-[4-(1-pyrrolidinylmethyl)phenyl]propyl}benzamide] | 80 to 82
CC(CNC(=O)c1ccc(-c2ccc(Cl)cc2)cc1F)c1ccc(CN2CCCC2)cc1 (stereo not shown) [Example 6, 4′-chloro-3-fluoro-N-{2-[4-(1-pyrrolidinylmethyl)phenyl]propyl}[1,1′-biphenyl]-4-carboxamide] | 119 to 121
CC(CNC(=O)c1ccc(-c2ccc(Cl)cc2)cc1)c1ccc(CN2CCCC2)cc1 (stereo not shown) [Example 8, 4′-chloro-N-{2-[4-(1-pyrrolidinylmethyl)phenyl]propyl}[1,1′-biphenyl]-4-carboxamide] | 156 to 157
CCCCCc1ccc(C(=O)NCC(C)c2ccc(CN3CCCC3)cc2)cc1 (stereo not shown) [Example 9, 4-pentyl-N-{2-[4-(1-pyrrolidinylmethyl)phenyl]propyl}benzamide] | 91 to 92
CC(c1ccc(CCNC(=O)c2ccc(Br)cc2)cc1)N1CCCC1 (stereo not shown) [Example 10, 4-bromo-N-(2-{4-[1-(1-pyrrolidinyl)ethyl]phenyl}ethyl)benzamide] | 124 to 126
CC(c1ccc(CCNC(=O)c2ccc(-c3ccc(Cl)cc3)cc2)cc1)N1CCCC1 (stereo not shown) [Example 11, 4′-chloro-N-(2-{4-[1-(1-pyrrolidinyl)ethyl]phenyl}ethyl)[1,1′-biphenyl]-4-carboxamide] | 152 to 153
COc1ccc(-c2ccc(C(=O)NCCc3ccc(C(C)N4CCCC4)cc3)cc2)cc1 (stereo not shown) [Example 12, 4′-methoxy-N-(2-{4-[1-(1-pyrrolidinyl)ethyl]phenyl}ethyl)[1,1′-biphenyl]-4-carboxamide] | 163 to 165
CC(c1ccc(CCNC(=O)c2ccc(-c3ccc(F)cc3)cc2)cc1)N1CCCC1 (stereo not shown) [Example 13, 4′-fluoro-N-(2-{4-[1-(1-pyrrolidinyl)ethyl]phenyl}ethyl)[1,1′-biphenyl]-4-carboxamide] | 141 to 143
Cc1ccc(-c2ccc(C(=O)NCCc3ccc(C(C)N4CCCC4)cc3)cc2)cc1 (stereo not shown) [Example 14, 4′-methyl-N-(2-{4-[1-(1-pyrrolidinyl)ethyl]phenyl}ethyl)[1,1′-biphenyl]-4-carboxamide] | 160 to 163
CC(c1ccc(CCNC(=O)c2ccc(-c3ccc(C(F)(F)F)cc3)cc2)cc1)N1CCCC1 (stereo not shown) [Example 15, N-(2-{4-[1-(1-pyrrolidinyl)ethyl]phenyl}ethyl)-4′-(trifluoromethyl)[1,1′-biphenyl]-4-carboxamide] | 149 to 151
CC(c1ccc(CCNC(=O)c2ccc(-c3ccc(OC(F)(F)F)cc3)cc2)cc1)N1CCCC1 (stereo not shown) [Example 16, N-(2-{4-[1-(1-pyrrolidinyl)ethyl]phenyl}ethyl)-4′-(trifluoromethoxy)[1,1′-biphenyl]-4-carboxamide] | 135 to 137
CC(c1ccc(CCNC(=O)c2ccc(-c3ccccc3)cc2)cc1)N1CCCC1 (stereo not shown) [Example 31, N-(2-{4-[1-(1-pyrrolidinyl)ethyl]phenyl}ethyl)[1,1′-biphenyl]-4-carboxamide] | 136 to 138
CCC(c1ccc(CCNC(=O)c2ccc(Br)cc2)cc1)N1CCCC1 (stereo not shown) [Example 32, 4-bromo-N-(2-{4-[1-(1-pyrrolidinyl)propyl]phenyl}ethyl)benzamide] | 90 to 92
CCC(c1ccc(CCNC(=O)c2ccc(-c3ccc(Cl)cc3)cc2)cc1)N1CCCC1 (stereo not shown) [Example 33, 4′-chloro-N-(2-{4-[1-(1-pyrrolidinyl)propyl]phenyl}ethyl)[1,1′-biphenyl]-4-carboxamide] | 151 to 153

Compound | melting point [°C]
CC(C)C(c1ccc(CCNC(=O)c2ccc(-c3ccc(Cl)cc3)cc2)cc1)N1CCCC1 (stereo not shown) [Example 36, 4′-chloro-N-(2-{4-[2-methyl-1-(1-pyrrolidinyl)propyl]phenyl}ethyl)[1,1′-biphenyl]-4-carboxamide] | 143 to 145
CC(c1ccc(CCNC(=O)c2ccc(-c3ccc(Cl)cc3)cc2)cc1)N1CCSCC1 (stereo not shown) [Example 37, 4′-chloro-N-(2-{4-[1-(4-thiomorpholinyl)ethyl]phenyl}ethyl)[1,1′-biphenyl]-4-carboxamide] | 168 to 169
CCCCCc1ccc(C(=O)NCCc2ccc(C(C)N3CCCC3)cc2)cc1 (stereo not shown) [Example 38, 4-pentyl-N-(2-{4-[1-(1-pyrrolidinyl)ethyl]phenyl}ethyl)benzamide] | 76 to 77
CN1CCCC1c1ccc(CCNC(=O)c2ccc(-c3ccc(Cl)cc3)cc2)cc1 (stereo not shown) [Example 137, 4′-chloro-N-{2-[4-(1-methyl-2-pyrrolidinyl)phenyl]ethyl}[1,1′-biphenyl]-4-carboxamide] | 169 to 171
CN1CCCC1c1ccc(CCNC(=O)c2ccc(OCC3CC3)cc2)cc1 (stereo not shown) [Example 138, 4-cyclopropylmethoxy-N-{2-[4-(1-methyl-2-pyrrolidinyl)phenyl]ethyl}benzamide] | 143 to 145
COc1ccc(-c2ccc(C(=O)NCCc3ccc(C4CCCN4C)cc3)cc2)cc1 (stereo not shown) [Example 139, 4′-methoxy-N-{2-[4-(1-methyl-2-pyrrolidinyl)phenyl]ethyl}[1,1′-biphenyl]-4-carboxamide] | 165 to 167
O=C(NCCc1ccc(CN2CCCC2)cc1)c1ccc(OCC2CC2)cc1F [Example 140, 4-cyclopropylmethoxy-2-fluoro-N-{2-[4-(1-pyrrolidinylmethyl)phenyl]ethyl}benzamide] | 90 to 92
O=C(NCCc1ccc(CN2CCCC2)cc1)c1ccc(OCCC2CC2)cc1F [Example 141, 4-(2-cyclopropylethoxy)-2-fluoro-N-{2-[4-(1-pyrrolidinylmethyl)phenyl]ethyl}benzamide] | 66 to 68
O=C(Cc1ccc(CN2CCCC2)cc1)NCc1ccc(Br)cc1 [Reference Example 38, N-(4-bromobenzyl)-2-[4-(1-pyrrolidinylmethyl)phenyl]acetamide] | 107 to 109
O=C(CCc1ccc(CN2CCCC2)cc1)Nc1ccc(Br)cc1 [Reference Example 41, N-(4-bromophenyl)-3-[4-(1-pyrrolidinylmethyl)phenyl]propanamide] | 137 to 138
O=C(/C=C/c1ccc(CN2CCCC2)cc1)Nc1ccc(Br)cc1 [Reference Example 43, (E)-N-(4-bromophenyl)-3-[4-(1-pyrrolidinylmethyl)phenyl]-2-propenamide] | 184 to 186
O=C(COc1ccc(CN2CCCC2)cc1)Nc1ccc(Br)cc1 [Reference Example 46, N-(4-bromophenyl)-2-[4-(1-pyrrolidinylmethyl)phenoxy]acetamide] | 143 to 145
O=C(Cc1ccc(CN2CCCC2)cc1)NCc1ccc(-c2ccc(Cl)cc2)cc1 [compound 39, N-[(4′-chloro-1,1′-biphenyl-4-yl)methyl]-2-[4-(1-pyrrolidinylmethyl)phenyl]acetamide] | 151 to 153
CCCCCc1ccc(NC(=O)CCc2ccc(CN3CCCC3)cc2)cc1 [compound 40, N-(4-pentylphenyl)-3-[4-(1-pyrrolidinylmethyl)phenyl]propanamide] | 104 to 105
O=C(CCc1ccc(CN2CCCC2)cc1)Nc1ccc(-c2ccc(Cl)cc2)cc1 [compound 42, N-(4′-chloro-1,1′-biphenyl-4-yl)-3-[4-(1-pyrrolidinylmethyl)phenyl]propanamide] | 179 to 181
O=C(/C=C/c1ccc(CN2CCCC2)cc1)Nc1ccc(-c2ccc(Cl)cc2)cc1 [compound 44, (E)-N-(4′-chloro-1,1′-biphenyl-4-yl)-3-[4-(1-pyrrolidinylmethyl)phenyl]-2-propenamide] | 207 to 209
O=C(NCCc1ccc(-c2ccc(Cl)cc2)cc1)c1ccc(CN2CCCC2)cc1 [compound 45, N-[2-(4′-chloro-1,1′-biphenyl-4-yl)ethyl]-4-(1-pyrrolidinylmethyl)benzamide] | 187 to 189
